Series [1] concerns Peritoneal macrophages from NMRI mice. Kind of series: Toxic effect on macrophages in the macrophage test. As to conditions: murine peritoneal macrophages in the macrophage test. The format is cell-based. The protocol: Peritoneal macrophages from NMRI mice are collected 1 day after stimulation of macrophage production with an intraperitoneal injection of 2 mL of a 2% potato starch suspension. The present test was conducted at 37° C. under an atmosphere having a CO2 concentration of 5%. Each of the compounds to be used in the test was dissolved in DMSO to give a test solution having a predetermined concentration.
100 μL of a murine macrophage suspension (4×10^5/mL) in a RPMI 1640 medium containing bicarbonate and N-2-hydroxyethylpiperazine-N′-2-ethanesulfonic acid (HEPES) and supplemented with 10% heat-inactivated fetal bovine serum (RPMI/FBS medium) was added to wells of 96-well culture plates. After 24 hours, 100 μL of a suspension containing amastigotes (1.2×10^6/mL) was further added to each well, giving a suspension having a amastigotes/macrophages ratio of 3/1. The amastigotes were prepared in the same manner as above, and suspended in the RPMI/FBS medium. After 24 hours, the medium containing free amastigotes was removed, the cells were washed once with medium, and fresh media containing the test compound at serial dilutions (four 3-fold dilutions for each compound) were added to the wells. The growth of the protozoa in samples treated with the test-compound-containing media was compared with that of the control. Specifically, after 4 days of incubation, the samples were fixed with methanol, and thereafter stained with a 10% Giemsa solution. The IC50 values were determined based on the number of infected macrophages.
It is unexpected and surprising finding that such a harsh toxic effect against macrophages is reduced by introduction of a halogen atom, particularly a fluorine atom, according to the invention, and anti-leishmania activity is manifested.

Series [2] relates to Rat-derived L6 cells (rat skeletal myoblast cells). Kind of series: Rat L6 cell proliferation inhibition test. It counts as cell-based. The method, then: Rat-derived L6 cells (rat skeletal myoblast cells) were used. The cells were cultured at 37° C. at a CO2 concentration of 5%, using, as a culture medium, a RPMI 1640 medium supplemented with 1% L-glutamine (200 mM) and 10% fetal bovine serum (FBS).
Each of the compounds to be tested was dissolved in DMSO to give a test solution having a concentration of 10 mg/mL.
96-well culture plates of which each well contained 4×10^4 cells in 100 μL of the culture medium were prepared. After 24 hours, a 3-fold dilution series was prepared according to an ordinary method by adding a medium containing the compound to be tested, and the test was conducted.
After incubating the culture plates for 72 hours in an incubator, the plates were inspected with respect to proliferation activity. The inspection was conducted as follows. 10 μL of the Alamar Blue aqueous solution as described above was added to each well, and the plates were incubated for another 2 hours. Then, the culture plates were mounted on a microplate fluorometer, and irradiated with light at an excitation wavelength of 536 nm. The intensity of fluorescence at 588 nm was measured, and the residual ratios of L6 cells in the group added with the test solution and in the control were calculated.
The 50% proliferation inhibitory concentration (IC50) values were determined based on the residual ratios of cells obtained above, and the results are shown in Table 1. In Table 1, “ND” represents that the test was not conducted.

Series [3] concerns Leishmania donovani (L. Don, MHOM/ET/67/L82 strain). Briefly: Leishmania protozoa proliferation inhibition test (amastigotes, Alamar Blue). The format is cell-based. Particulars: for Selective Toxicity Coefficient: (IC50 against rat L6 cells)/(IC50 against leishmania protozoa). The protocol: In this test, Leishmania donovani (L. Don, MHOM/ET/67/L82 strain) was used. The protozoa were maintained in the Syrian Golden hamster, and amastigotes were collected from the spleen of an infected hamster. A SM medium supplemented with 10% heat-inactivated fetal bovine serum was used in the experiment, and the pH was adjusted to 5.4. The protozoa were grown at 37° C. under an atmosphere having a CO2 concentration of 5%. The activity with respect to inhibition of the proliferation of leishmania protozoa was studied for Compounds A, C, and D according to the invention for test, and for MKT-077, Compound X, and miltefosine (positive compound, existing drug) as comparative compounds. The structures of the compounds are as shown below. Each compound was dissolved in DMSO to give a test solution having a predetermined concentration. Each of the compounds to be used in the test was dissolved in DMSO to give a test solution having a concentration of 10 mg/mL. Assays were performed in 96-well culture plates, with each well containing 100 μL of the culture medium containing 10^5 amastigotes with or without the test compound at a predetermined serial dilution. The test was conducted twice. […] Each culture plate was mounted on a microplate fluorometer, and irradiated with light at an excitation wavelength of 536 nm. The intensity of fluorescence at 588 nm was measured, and the residual ratios of leishmania protozoa in the group added with the test solution and in the control were calculated. […] The selective toxicity coefficient, which is used as an index of the selectivity against leishmania protozoa, was calculated according to the following equation, and the drug efficacy was evaluated. Selective toxicity coefficient=(IC50 value of the test compound against rat L6 cells)/(IC50 value of the test compound against leishmania protozoa)

Series [4] deals with L. donovani (strain MHOM/ET/67/HU3). Kind of series: Anti-leishmania activity test using mice infected with leishmania. The format is in vivo, Female BALB/c mice. As to conditions: amastigotes per 500 liver cells. The method, then: Compound A was used as the test compound in this test. Further, a pentostam-sensitive L. donovani (strain MHOM/ET/67/HU3) was used in this test, and the protozoa were maintained in Syrian Golden hamsters, and amastigotes were isolated from spleen cells of the infected hamster. Then, an inoculum containing 7.5×10^7 amastigotes/mL in RPMI 1640 was prepared. Female BALB/c mice (20 g) were infected with the amastigotes by intravenous injection at the tail vein on day 0. On day 7 after infection, one mouse was sacrificed, liver smears were methanol-fixed and Giemsa-stained, thereby confirming infection. The test compound was dissolved in an aqueous solution containing 10% ethanol and 5% glucose, and administered to the mice once a day for 5 days from day 7 to day 11. 3 days after the completion of the administration of the drug, livers were removed and weighed, and smears were methanol-fixed and then Giemsa-stained. The number of amastigotes (average value) per 500 liver cells was determined by counting, and the infection inhibition rate was determined based on the comparison thereof with mice that had not been treated with the drug. Infection inhibition rate (%)=[1−(b−a)/(c−a)]×100 a: Initial infection rate b: Infection rate in the mice treated with the test solution c: Infection rate in the control mice

The test system of series [5] is leishmania protozoa in macrophages (L. Don). Briefly: Leishmania protozoa proliferation inhibition test in macrophages. Particulars: amastigotes in murine peritoneal macrophages, 4 days incubation, number of infected macrophages. The format is cell-based, Leishmania donovani. The method, then: The inhibitory activity on the proliferation of leishmania protozoa in macrophages was examined for Compounds A and B according to the invention and comparative compounds MKT-077, Compound X, Compound Y, Compound Z, and miltefosine (positive compound, existing drug). The structures of the compounds are as shown below. Peritoneal macrophages from NMRI mice are collected 1 day after stimulation of macrophage production with an intraperitoneal injection of 2 mL of a 2% potato starch suspension. The present test was conducted at 37° C. under an atmosphere having a CO2 concentration of 5%. Each of the compounds to be used in the test was dissolved in DMSO to give a test solution having a predetermined concentration. […] After 24 hours, 100 μL of a suspension containing amastigotes (1.2×10^6/mL) was further added to each well, giving a suspension having a amastigotes/macrophages ratio of 3/1. The amastigotes were prepared in the same manner as above, and suspended in the RPMI/FBS medium. After 24 hours, the medium containing free amastigotes was removed, the cells were washed once with medium, and fresh media containing the test compound at serial dilutions (four 3-fold dilutions for each compound) were added to the wells. […] The IC50 values were determined based on the number of infected macrophages.

[6] abbreviates: Rattus norvegicus, L6, 72 h, read-out: 50% Proliferation Inhibitory Concentration IC50 L-6 Cells, rat L6 cells, 72 hours incubation, Alamar Blue.
The mark [7] stands for this setting: Leishmania donovani, 72 h, pH 5.4, read-out: 50% Proliferation Inhibitory Concentration IC50 L. Don, amastigotes, 72 hours incubation, pH 5.4, Alamar Blue.

Entries after “also recorded” stand apart in the source; their conditions may differ. Counter-ions that a name gives are not always drawn. Like-named read-outs stand apart in the source and are kept apart here.

Take `CCN1/C(=C/C=c2\s/c(=C\c3sc4c5ccccc5ccc4[n+]3CC)n(CC)c2=O)Sc2ccc3ccccc3c21` [Compound Y]: the “Toxic effect against macrophages” value in series [1] is “macrophages were killed by strong toxic effects; also recorded: Could not be tested as the macrophages died”.

As for `CCn1c(=O)/c(=C/C=C2\Sc3ccccc3N2C)s/c1=C\c1sc2ccccc2[n+]1C` [Compound X, reference compound], the IC50 came to 125000 nM in series [2] (setting [6]) and 52 nM in series [3] (setting [7]). For the same compound, the “Selective Toxicity Coefficient” value in series [3] was 2,400. In addition, in series [1], the “Toxic effect against macrophages” value was “Could not be tested as the macrophages died”.

Take `CCn1c(=O)/c(=C/C=C2\Sc3ccccc3N2C)s/c1=C\c1sc2ccc(F)cc2[n+]1C` [Compound C, 2-((3-ethyl-5-(2-(3-methylbenzo[d]thiazol-2(3H)-ylidene)ethylidene)-4-oxothiazolidin-2-ylidene)methyl)-5-fluoro-3-methylbenzo[d]thiazol-3-ium maleate]: the IC50 was 71700 nM in series [2] (setting [6]) and 25 nM in series [3] (setting [7]). Also, the “Toxicity toward normal cells” value in series [2] (rat L6 cells) is listed as “only a weak toxicity toward normal cells”. Besides, in series [3], the “Selective Toxicity Coefficient” value is reported as 2,870.

Usually melting point stands for the temperature of the solid-liquid transition. Compound `CCn1c(=O)/c(=C/C=C2\Sc3ccccc3N2C)s/c1=C\c1sc2ccc(F)cc2[n+]1C.[Cl-]` [Compound A] came in with a melting point of 274.5 to 275.6 °C. In series [2] (rat L6 cells), the “Toxicity toward normal cells” value is on record as “only a weak toxicity toward normal cells”. Also, the “Infection Inhibition Rate” value in series [4] (intravenous injection 0.20 mg/kg/day × 5 days) amounted to 16.1%. Further, the “Infection Inhibition Rate” value in series [4] (intravenous injection 1.30 mg/kg/day × 5 days) came to 94.9%. The “Infection Inhibition Rate” value in series [4] (intravenous injection 4.10 mg/kg/day × 5 days) is on record as 97.1%. For the same compound, in series [3], the “Selective Toxicity Coefficient” value is given as >15,000.

For `CCCCCCCCCCCCCCCCOP(=O)([O-])OCC[N+](C)(C)C` [Miltefosine, miltefosine, reference compound], the IC50 in series [3] (amastigotes, 72 hours incubation, pH 5.4, Alamar Blue, read-out: 50% Proliferation Inhibitory Concentration IC50 L. Don) worked out at 430 nM; in series [5], 811 nM.

The compound `CCn1c(=O)/c(=C/C=C2\Sc3ccccc3N2C)s/c1=C\c1sc2ccc(F)cc2[n+]1C` (as salt: maleate) [Compound C, 2-((3-ethyl-5-(2-(3-methylbenzo[d]thiazol-2(3H)-ylidene)ethylidene)-4-oxothiazolidin-2-ylidene)methyl)-5-fluoro-3-methylbenzo[d]thiazol-3-ium maleate] gave a melting point of 260.1 to 260.8 °C.

Regarding `CCn1c(=O)/c(=C/C=C2\Sc3ccccc3N2C)s/c1=C\c1sc2ccc(F)cc2[n+]1C.[Cl-]` [Compound A, 2-((3-ethyl-5-(2-(3-methylbenzo[d]thiazole-2(3H)-ylidene)ethylidene)-4-oxothiazolidine-2-ylidene)methyl-5-fluoro-3-methylbenzo[d]thiazole-3-ium chloride], the IC50 was > 173000 nM in series [2] (rat L6 cells, 72 hours incubation, Alamar Blue, read-out: 50% Proliferation Inhibitory Concentration IC50 L-6 Cells); 11 nM in series [3] (Leishmania donovani, amastigotes, 72 hours incubation, pH 5.4, Alamar Blue, read-out: 50% Proliferation Inhibitory Concentration IC50 L. Don); 353 nM in series [5] (Leishmania, Macrophage, 96 h).

As for `CCn1c(=O)/c(=C/C=C2\Sc3ccccc3N2C)s/c1=C\c1sc2ccc(F)cc2[n+]1C` [Compound D, 2-((3-ethyl-5-(2-(3-methylbenzo[d]thiazol-2(3H)-ylidene)ethylidene)-4-oxothiazolidin-2-ylidene)methyl)-5-fluoro-3-methylbenzo[d]thiazol-3-ium methanesulfonate], the IC50 was 84500 nM in series [2] (read-out: 50% Proliferation Inhibitory Concentration IC50 L-6 Cells, rat L6 cells, 72 hours incubation, Alamar Blue, methanesulfonate) and 20 nM in series [3] (read-out: 50% Proliferation Inhibitory Concentration IC50 L. Don, amastigotes, 72 hours incubation, pH 5.4, Alamar Blue, methanesulfonate). The “Selective Toxicity Coefficient” value in series [3] (methanesulfonate) is 4,220.

With `CCN1CCS/C1=C\C=c1/s/c(=C\c2sc3c4ccccc4ccc3[n+]2CCO)n(CC)c1=O` [Compound Z], the “Toxic effect against macrophages” value in series [1] was “macrophages were killed by strong toxic effects; also recorded: Could not be tested as the macrophages died”.

The values above are taken from US8471036B2, “Rhodacyanine derivative and pharmaceutical composition for treating leishmaniasis” (FUJIFILM Corporation, priority 2009, dated 2013).
